Measurements: US8835428B2, “Diacylglycerol acyltransferase inhibitors” (Piramal Enterprises Limited, priority 2008, dated 2014)

Biological target: T1, hDGAT1 (Homo sapiens, UniProt O75907)
T1 construct: host or cells: Sf9 insect cells (baculovirus); microsomal preparation
T1 sequence (O75907 1-488): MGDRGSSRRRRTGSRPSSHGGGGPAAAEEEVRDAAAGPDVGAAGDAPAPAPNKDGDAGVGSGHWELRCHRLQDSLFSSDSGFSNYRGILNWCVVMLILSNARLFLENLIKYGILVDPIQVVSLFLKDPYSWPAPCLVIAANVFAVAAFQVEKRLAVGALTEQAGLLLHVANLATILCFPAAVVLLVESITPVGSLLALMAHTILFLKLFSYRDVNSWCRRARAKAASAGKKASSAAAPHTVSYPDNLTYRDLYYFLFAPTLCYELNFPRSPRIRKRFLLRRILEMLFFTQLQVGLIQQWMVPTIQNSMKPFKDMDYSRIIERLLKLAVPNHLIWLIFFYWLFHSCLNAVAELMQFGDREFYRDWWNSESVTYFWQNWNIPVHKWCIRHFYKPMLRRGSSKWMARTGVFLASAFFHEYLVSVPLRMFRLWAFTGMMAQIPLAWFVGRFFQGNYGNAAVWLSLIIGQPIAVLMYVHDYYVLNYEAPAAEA
Experiment: In-vitro DGAT1 assay (hDGAT1 microsomes from Sf9 cells, 14C oleoyl CoA, triglyceride formation)
Format: biochemical
Summary of the method: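 Compounds tested in duplicate at 10, 5 and 1 μM for 10 min at 37 °C. Reaction: Sf9-expressed hDGAT1 microsomes (2.5–10 μg), [14C]oleoyl-CoA plus 409.5–1638 μM dioleoylglycerol, pH 7.4 Tris-HCl with fatty-acid-free BSA. Radiolabelled triglyceride extracted into heptane and scintillation-counted.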

Row | Molecule | inhibition at 5 µM [%] | inhibition at 10 µM (At 10 μM) [%] | inhibition at 1 µM [%] | further results
1 | COC(=O)C(Cc1ccccc1)NC(=O)c1cc(-c2ccc(NC(=O)Nc3ccccc3F)cc2)no1 (stereo not drawn) [Example 241, Methyl 2-(3-(4-(3-(2-fluorophenyl)ureido)phenyl)isoxazole-5-carboxamido)-3-phenylpropanoate] | 0 to 50 |  |  | 
2 | CC(C)C(NC(=O)c1cc(-c2ccc(NC(=O)Nc3ccc(C(F)(F)F)cc3)cc2)no1)C(=O)O (stereo not drawn) [Example 276, 3-Methyl-2-(3-(4-(3-(4-(trifluoromethyl)phenyl)ureido)phenyl)isoxazole-5-carboxamido)butanoic acid] | 75 to 100 |  |  | 
3 | CC(C)(NC(=O)c1cc(-c2ccc(NC(=O)Nc3ccc(F)cc3)cc2)no1)C(=O)O [Example 118, 2-(3-(4-(3-(4-fluorophenyl)ureido)phenyl)isoxazole-5-carboxamido)-2-methylpropanoic acid] |  | 50 to 75 |  | 
4 | COC(=O)[C@@H](NC(=O)c1cc(-c2ccc(NC(=O)Nc3ccc(F)c(F)c3)cc2)no1)C(C)C [Example 129, (S)-methyl 2-(3-(4-(3-(3,4-difluorophenyl)ureido)phenyl)isoxazole-5-carboxamido)-3-methylbutanoate] |  |  | 50 to 75 | 
5 | CSc1ccc(NC(=O)Nc2ccc(-c3cc(C(=O)N[C@H](C(=O)O)C(C)C)on3)cc2)cc1 [Example 197, (S)-3-methyl-2-(3-(4-(3-(4-(methylthio)phenyl)ureido)phenyl)isoxazole-5-carboxamido)butanoic acid] |  |  | 75 to 100 | 
6 | COC(=O)[C@H](CC(C)C)NC(=O)c1onc(-c2ccc(NC(=O)Nc3ccccc3)cc2)c1-c1ccccc1 [Example 90, (S)-4-Methyl-2-({4-phenyl-3-[4-(3-phenyl-ureido)-phenyl]-isoxazole-5-carbonyl}-amino)-pentanoic acid methyl ester] |  | 0 to 50 |  | 
7 | COC(=O)[C@@H](NC(=O)c1nc(-c2ccc(NC(=O)Nc3ccc(OC)cc3)cc2)no1)C(C)C [Example 344, (S)-Methyl 2-(3-(4-(3-(4-methoxyphenyl)ureido)phenyl)-1,2,4-oxadiazole-5-carboxamido)-3-methylbutanoate] | 0 to 50 |  |  | 
8 | COC(=O)[C@H](CO)NC(=O)c1cc(-c2ccc(NC(=O)Nc3ccccc3F)cc2)no1 [Example 298, (S)-Methyl 2-(3-(4-(3-(2-fluorophenyl)ureido)phenyl)isoxazole-5-carboxamido)-3-hydroxypropanoate] | 50 to 75 |  |  | 
9 | COC(=O)[C@H](NC(=NO)c1cc(-c2ccc(Nc3nc4ccc(F)cc4s3)cc2)no1)C(C)C [Example 40, (R)-2-({3-[4-(6-Fluoro-benzothiazol-2-ylamino)-phenyl]-N-hydroxy-isoxazole-5-carboximidoyl}-amino)-3-methyl-butyric acid methyl ester] |  | 0 to 50 |  | 
10 | COC[C@H](NC(=O)c1cc(-c2cccc(Nc3nc4ccc(F)cc4s3)c2)no1)C(=O)OC [Example 28, (S)-2-({3-[3-(6-Fluoro-benzothiazol-2-ylamino)-phenyl]-isoxazole-5-carbonyl}-amino)-3-methoxy-propionic acid methyl ester] |  | 0 to 50 |  | 
11 | Cc1ccc(NC(=O)Nc2ccc(F)cc2)cc1-c1cc(C(=O)NC(CC(C)C)C(=O)O)on1 (stereo not drawn) [Example 132, 2-(3-(5-(3-(4-fluorophenyl)ureido)-2-methylphenyl)isoxazole-5-carboxamido)-4-methylpentanoic acid] |  | 0 to 50 |  | 
12 | COC(=O)[C@H](Cc1ccc(O)cc1)NC(=O)c1cc(-c2ccc(NC(=O)Nc3ccc(C)cc3)cc2)no1 [Example 272, (S)-Methyl 3-(4-hydroxyphenyl)-2-(3-(4-(3-p-tolylureido)phenyl)isoxazole-5-carboxamido)propanoate] | 0 to 50 |  |  | 
13 | CC(C)[C@H](NC(=O)c1cc(-c2ccc(NC(=S)Nc3ccccc3F)cc2)no1)C(=O)O [Example 270, (S)-2-(3-(4-(3-(2-fluorophenyl)thioureido)phenyl)isoxazole-5-carboxamido)-3-methylbutanoic acid] | 50 to 75 |  |  | 
14 | CC(C)[C@H](NC(=O)c1cc(-c2ccc(NC(=O)Nc3ccc(Cl)cc3)cc2)no1)C(=O)O [Example 179, (S)-2-(3-(4-(3-(4-Chlorophenyl)ureido)phenyl)isoxazole-5-carboxamido)-3-methylbutanoic acid] |  |  | 75 to 100 | 
15 | COC(=O)[C@@H](NC(=S)c1cc(-c2ccc(Nc3nc4ccc(F)cc4s3)cc2)no1)c1ccccc1 [Example 54, (S)-({3-[4-(6-Fluoro-benzothiazol-2-ylamino)-phenyl]-isoxazole-5-carbothioyl}-amino)-phenyl-acetic acid methyl ester] |  | 0 to 50 |  | 
16 | CC(C)[C@@H](C(=O)O)N(C)C(=O)c1cc(-c2ccc(NC(=O)Nc3ccccc3F)cc2)no1 [Example 306, (S)-2-(3-(4-(3-(2-fluorophenyl)ureido)phenyl)-N-methylisoxazole-5-carboxamido)-3-methylbutanoic acid] |  |  | 50 to 75 | 
17 | COC(=O)[C@@H](NC(=O)c1cc(-c2ccc(Nc3nc4ccc(F)cc4s3)cc2)no1)c1ccccc1 [Example 52, (S)-({3-[4-(6-Fluoro-benzothiazol-2-ylamino)-phenyl]-isoxazole-5-carbonyl}-amino)-phenyl-acetic acid methyl ester] |  | 0 to 50 |  | 
18 | Cc1ccc(NC(=O)Nc2ccc(-c3cc(C(=O)NC(C(=O)O)C(C)C)on3)cc2)cc1F (stereo not drawn) [Example 250, 2-(3-(4-(3-(3-Fluoro-4-methylphenyl)ureido)phenyl)isoxazole-5-carboxamido)-3-methylbutanoic acid] |  |  | 75 to 100 | 
19 | 7-{3-[4-(6-Fluoro-benzothiazol-2-ylamino)-phenyl]-isoxazole-5-yl}-9-oxa-6,8-diaza-spiro[4,5]dec-7-en-10-one [Example 67] |  |  |  | % inhibition of hDGAT1 (At 10 μM): +++ (>75% Inhibition ≦100)
20 | COC(=O)[C@@H](NC(=O)c1nc(-c2ccc(NC(=O)Nc3ccccc3)cc2)no1)C(C)C [Example 351, (S)-Methyl 3-methyl-2-(3-(4-(3-phenylureido)phenyl)-1,2,4-oxadiazole-5-carboxamido)butanoate] | 0 to 50 |  |  | 
21 | CC(C)[C@@H](NC(=O)c1cc(-c2ccc(NC(=O)Nc3ccccc3F)cc2)no1)C(=O)O [Example 258, (R)-2-(3-(4-(3-(2-Fluorophenyl)ureido)phenyl)isoxazole-5-carboxamido)-3-methylbutanoic acid] |  |  | 50 to 75 | 
22 | Cc1cccc(NC(=O)Nc2ccc(-c3cc(C(=O)N[C@H](C(=O)O)C(C)C)on3)cc2)c1 [Example 266, (S)-3-methyl-2-(3-(4-(3-m-tolylureido)phenyl)isoxazole-5-carboxamido)butanoic acid] | 75 to 100 |  |  | 
23 | CC(C)[C@@H](C(=O)O)N(C)C(=O)c1cc(-c2ccc(NC(=O)Nc3ccccc3Cl)cc2)no1 [Example 314, (S)-2-(3-(4-(3-(2-chlorophenyl)ureido)phenyl)-N-methylisoxazole-5-carboxamido)-3-methylbutanoic acid] |  |  | 50 to 75 | 
24 | COC[C@H](NC(=NO)c1cc(-c2cccc(Nc3nc4ccc(F)cc4s3)c2)no1)C(=O)O [Example 33, (S)-2-({3-[3-(6-Fluoro-benzothiazol-2-ylamino)-phenyl]-N-hydroxy-isoxazole-5-carboximidoyl}-amino)-3-methoxy-propionic acid] |  | 0 to 50 |  | 
25 | COC(=O)[C@@H](NC(=S)c1cc(-c2cccc(Nc3nc4ccc(F)cc4s3)c2)no1)C(C)C [Example 24, (S)-2-({3-[3-(6-Fluoro-benzothiazol-2-ylamino)-phenyl]-isoxazole-5-carbothioyl}-amino)-3-methyl-butyric acid methyl ester] |  | 0 to 50 |  | 
26 | COC[C@H](NC(=O)c1c(-c2ccc(Nc3nc4ccc(F)cc4s3)cc2)noc1-c1ccccc1)C(=O)OC [Example 70, (S)-2-({3-[4-(6-Fluoro-benzothiazol-2-ylamino)-phenyl]-5-phenyl-isoxazole-4-carbonyl}-amino)-3-methoxy-propionic acid methyl ester] |  | 0 to 50 |  | 
27 | CC(C)[C@@H](C(=O)O)N(C)C(=O)c1cc(-c2ccc(NC(=O)Nc3ccc(F)cc3)cc2)no1 [Example 308, (S)-2-(3-(4-(3-(4-fluorophenyl)ureido)phenyl)-N-methylisoxazole-5-carboxamido)-3-methylbutanoic acid] |  |  | 50 to 75 | 
28 | COC(=O)[C@@H](NC(=O)c1nc(-c2ccc(NC(=S)Nc3cccc(F)c3)cc2)no1)C(C)C [Example 353, (S)-Methyl 2-(3-(4-(3-(3-fluorophenyl)thioureido)phenyl)-1,2,4-oxadiazole-5-carboxamido)-3-methylbutanoate] | 0 to 50 |  |  | 
29 | CC(C)[C@H](NC(=O)c1onc(-c2ccc(NC(=O)Nc3ccc(F)cc3)cc2)c1-c1ccccc1)C(=O)O [Example 93, (S)-2-[(3-{4-[3-(4-Fluoro-phenyl)-ureido]-phenyl}-4-phenyl-isoxazole-5-carbonyl)-amino]-3-methyl-butyric acid] |  | 0 to 50 |  | 
30 | Cc1ccc(F)cc1NC(=O)Nc1ccc(-c2cc(C(=O)NC(C(=O)O)C(C)C)on2)cc1 (stereo not drawn) [Example 252, 2-(3-(4-(3-(5-Fluoro-2-methylphenyl)ureido)phenyl)isoxazole-5-carboxamido)-3-methylbutanoic acid] |  |  | 75 to 100 | 
